The target of test [1] is T1, recombinant METTL3/METTL14 complex (Homo sapiens, UniProt Q86U44).
T1 construct: purchased Active Motif 311970; host or cells: Sf9 cells
Put plainly: METTL3/14 Scintillation Proximity Assay (SPA), RNA methyltransferase activity. It is filed as biochemical. The following applies: 5.31 nM METTL3/14 complex, 250 nM RNA substrate, 1 μM 3H-SAM, 90 min; for compounds marked * best of the two separated forms. On the technique in general: In a scintillation proximity assay essentially only radioactivity close to the scintillant gives light.

The next test relates to Caov-3 cells. Kind of test: Caov-3 cellular viability assay (ATP-Lite, 72 h). It is filed as cell-based. The following applies: Homo sapiens, ATP-Lite luminescence, % viability relative to DMSO. The method, boiled down:
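IC50 values come from concentration-response fits of luminescent ATP content (ATP-Lite One Step), normalised as % viability versus DMSO. Compound exposure was 72 h at 37 °C in RPMI-1640/10% FBS with 0.1% final DMSO. Wells held 10000 cells each.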

The next test has as its system Kasumi-1 cells. Kind of test: Kasumi-1 cellular viability assay (ATP-Lite, 72 h). The settings on record: Homo sapiens, ATP-Lite luminescence, % viability relative to DMSO. It is filed as cell-based. Summed up: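 Viability was read by ATP-Lite One Step luminescence after 72 h compound treatment at 37 °C/5% CO2, normalised to DMSO control, with IC50 fitted from concentration-response. Cells were Kasumi-1 (AML FAB M2) at 15000 per well in RPMI-1640/10% FBS, 0.1% DMSO final.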

We go through 10 compounds from patent US20250002475A1 (EPICS THERAPEUTICS, priority 2023, published 2025).

pIC50: −log10 of the molar value.

T1 sequence (Q86U44 whole entry): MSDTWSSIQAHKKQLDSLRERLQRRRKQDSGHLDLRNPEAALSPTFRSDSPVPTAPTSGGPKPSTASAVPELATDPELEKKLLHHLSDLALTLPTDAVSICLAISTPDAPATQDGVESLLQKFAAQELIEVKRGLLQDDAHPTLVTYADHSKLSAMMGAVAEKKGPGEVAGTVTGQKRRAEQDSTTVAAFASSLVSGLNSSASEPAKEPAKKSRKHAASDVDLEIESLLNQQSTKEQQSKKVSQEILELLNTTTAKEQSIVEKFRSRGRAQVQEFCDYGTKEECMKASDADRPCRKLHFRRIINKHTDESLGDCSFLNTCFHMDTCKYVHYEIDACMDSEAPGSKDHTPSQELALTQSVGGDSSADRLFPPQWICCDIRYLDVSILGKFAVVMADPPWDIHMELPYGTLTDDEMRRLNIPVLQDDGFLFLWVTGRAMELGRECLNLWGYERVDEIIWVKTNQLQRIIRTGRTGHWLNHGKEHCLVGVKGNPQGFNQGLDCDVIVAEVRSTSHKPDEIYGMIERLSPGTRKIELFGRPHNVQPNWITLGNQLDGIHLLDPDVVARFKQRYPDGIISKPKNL
T1 sequence (Q9HCE5 whole entry partner): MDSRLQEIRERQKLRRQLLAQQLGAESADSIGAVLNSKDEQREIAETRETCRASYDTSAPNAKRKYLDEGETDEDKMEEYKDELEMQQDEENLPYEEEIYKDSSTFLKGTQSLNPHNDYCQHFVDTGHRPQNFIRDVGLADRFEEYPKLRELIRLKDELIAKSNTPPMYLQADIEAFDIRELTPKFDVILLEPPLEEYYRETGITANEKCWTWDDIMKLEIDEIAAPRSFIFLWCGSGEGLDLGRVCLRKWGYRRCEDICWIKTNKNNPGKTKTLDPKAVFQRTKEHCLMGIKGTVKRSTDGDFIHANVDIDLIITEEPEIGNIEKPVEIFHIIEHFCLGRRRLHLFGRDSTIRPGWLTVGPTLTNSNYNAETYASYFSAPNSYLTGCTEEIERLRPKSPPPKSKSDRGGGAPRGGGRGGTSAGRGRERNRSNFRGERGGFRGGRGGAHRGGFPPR

For the compound `CC(n1cc(-c2cncc(N3CC4(C3)CC4(F)F)n2)nn1)n1ccc(N2CCC[C@@H](NCC3CC3)C2)cc1=O` (single isomer, unassigned) [Compound 254], the pIC50 (as a rule, −log10 of the IC50, conventionally taken in molar units) in test [1] was no less than 7.30; in the test with Caov-3 cells, no less than 6.30; with Kasumi-1 cells, no less than 6.30.

Take `O=C(NCc1ccc(N2CCC[C@@H](NCC3CCC3)C2)nn1)c1cc(=O)n2ccccc2n1` [Compound 002, (R)-N-((6-(3-((cyclobutylmethyl)amino)piperidin-1-yl)pyridazin-3-yl)methyl)-4-oxo-4H-pyrido[1,2-a]pyrimidine-2-carboxamide]: the negative-log IC50 (pIC50) in test [1] was no less than 7.30; in the test on Caov-3 cells, less than 5.30; in the test with Kasumi-1 cells, less than 5.30.

On to `c1cc2cc(-c3cn(Cc4ccc(N5CCC[C@@H](NCC6CCC6)C5)nn4)nn3)cnc2[nH]1` [Compound 009, (R)-1-(6-((4-(1H-pyrrolo[2,3-b]pyridin-5-yl)-1H-1,2,3-triazol-1-yl)methyl)pyridazin-3-yl)-N-(cyclobutylmethyl)piperidin-3-amine], for which the figures for the pIC50 (in test [1]; with Caov-3 cells; in the test on Kasumi-1 cells) were no less than 7.30, 5.30 to 6.30 and 5.30 to 6.30, respectively.

As for `O=C(Nc1cncc(N2CCCC2)n1)C1(c2ccc(N3CCC[C@@H](NCC4CCC4)C3)cc2)COC1` [Compound 281, (R)-3-(4-(3-((cyclobutylmethyl)amino)piperidin-1-yl)phenyl)-N-(6-(pyrrolidin-1-yl)pyrazin-2-yl)oxetane-3-carboxamide], the pIC50 in test [1] is no less than 7.30; in the test on Caov-3 cells, no less than 6.30; with Kasumi-1 cells it was no less than 6.30.

Take `c1cc(C2(n3cc(-c4cncc(N5CC6CC6C5)n4)nn3)COC2)ncc1N1CCC[C@@H](NCC2CC2)C1` (stereo partly drawn) [Compound 216, (3R)-1-(6-(3-(4-(6-(3-azabicyclo[3.1.0]hexan-3-yl)pyrazin-2-yl)-1H-1.2.3-triazol-1-yl)oxetan-3-yl)pyridin-3-yl)-N-(cyclopropylmethyl)piperidin-3-amine]: the figures for the pIC50 (in test [1]; with Caov-3 cells; with Kasumi-1 cells) were no less than 7.30, no less than 6.30 and no less than 6.30, respectively.

For the compound `c1cc(Cc2nnc(-c3cncc(N4CCCC4)n3)s2)ncc1N1CCC[C@@H](NCC2CC2)C1` [Compound 361, (R)-N-(cyclopropylmethyl)-1-(6-((5-(6-(pyrrolidin-1-yl)pyrazin-2-yl)-1,3,4-thiadiazol-2-yl)methyl)pyridin-3-yl)piperidin-3-amine], the pIC50 was no less than 7.30 in test [1], no less than 6.30 in the test with Caov-3 cells and no less than 6.30 in the test with Kasumi-1 cells.

Take `CN1CC(c2ccc(N3CCC[C@@H](NCC4CC4)C3)cn2)(n2cc(-c3cncc(C4CC4)c3)nn2)C1` [Compound 350, (R)-N-(cyclopropylmethyl)-1-(6-(3-(4-(5-cyclopropylpyridin-3-yl)-1H-1,2,3-triazol-1-yl)-1-methylazetidin-3-yl)pyridin-3-yl)piperidin-3-amine]: the negative-log IC50 (pIC50) is no less than 7.30 in test [1], 5.30 to 6.30 with Caov-3 cells and 5.30 to 6.30 with Kasumi-1 cells.

Turning to `COc1cncc(-n2cc(Cn3ccc(N4CCC[C@@H](NCC5CCC5)C4)cc3=O)nn2)c1` [Compound 075, (R)-4-(3-((cyclobutylmethyl)amino)piperidin-1-yl)-1-((1-(5-methoxypyridin-3-yl)-1H-1,2,3-triazol-4-yl)methyl)pyridin-2(1H)-one], the pIC50 was no less than 7.30 in test [1], 5.30 to 6.30 in the test on Caov-3 cells and less than 5.30 in the test with Kasumi-1 cells.

With `CC(n1cc(-c2cncc(-n3ccnc3)c2)nn1)n1ccc(N2CCC[C@@H](NCC3CC3)C2)cc1=O` (single isomer, unassigned) [Compound 218], the pIC50 in test [1] is no less than 7.30; in the test with Caov-3 cells it was 5.30 to 6.30; in the test on Kasumi-1 cells it was less than 5.30.

In the case of `FC1(F)CC(CN[C@@H]2CCCN(c3ccc(C4(n5cc(-c6cncc(C7CC7)c6)nn5)COC4)nc3)C2)C1` [Compound 341, (R)-1-(6-(3-(4-(5-cyclopropylpyridin-3-yl)-1H-1,2,3-triazol-1-yl)oxetan-3-yl)pyridin-3-yl)-N-((3,3-difluorocyclobutyl)methyl)piperidin-3-amine], the figures for the pIC50 (in test [1]; in the test on Caov-3 cells; with Kasumi-1 cells) were no less than 7.30, no less than 6.30 and no less than 6.30, respectively.
